According to patent US20110081298A1, “RATIOMETRIC BIOLUMINESCENT SENSOR FOR IMAGINING OXIDATIVE STRESS” (priority 2009, published 2011):
Residues, ends and D or L forms follow the SMILES beside them. *: point of attachment. Cbz = O=C(OCc1ccccc1)*

Assays:
Type in all cases: cell-based, human
HeLa-fR cells [1] = experiment: RLuc8/fLuc bioluminescence and RLuc8:fLuc ratio in HeLa-fR cells (Dual-Glo); conditions: for RLuc8:fLuc bioluminescent ratio: HeLa-fR cells treated with the stress/cell death inducer alone; for RLuc8:fLuc ratio of STS-treated cells with inhibitor/scavenger: inhibitor 1 hour before 10 μM STS for 24 hours, working concentrations of Table 7
Description: To induce cellular stress, HeLa cells were treated with Staurosporine (STS), hydrogen peroxide, or hypoxanthine and xanthine oxidase for 0 to 24 hours at concentrations indicated in Table 7. Stressed and unstressed cells were also incubated with inhibitors that target various intracellular protein degradation/modification pathways. The specific compounds/proteins that were utilized as inhibitors and the respective final working concentrations are also listed in Table 7. Inhibitors were added to cells 1-hr prior to adding inducers of cellular stress and left in the media for the duration of the treatment. Analogous controls were conducted in the absence of stress inducers.
(§1) To induce caspase dependent PCD, cells were treated with staurosporine (STS), Doxorubicin (DOX), or camptothecin (CPT) (Sigma, St. Louis, Mo.) in complete medium at indicated concentrations and time points. To induce caspase-independent PCD, cells were treated with sodium selenite (SSe, MP Biomedicals, Solon, Ohio) or resveratrol (Res, Enzo Life Sciences, Plymouth Meeting, Pa.) in complete medium at indicated concentrations and time points. In studies where allopurinol (Allo, MP Biomedicals) is used as an inhibitor, it was added at a final concentration of 100 μM to cells in complete medium for 1 hour prior to the addition of the death-inducing drugs and remained in the medium throughout the study.
(§2) Unless otherwise noted, bioluminescence assays were performed 24 hours after plating 10,000 HeLa-fR cells/well in a white-walled 96 well tissue culture plate (BD Biosciences, Franklin Lakes, N.J., USA).

caspases 3 and 7 = experiment: Caspase-Glo 3/7 assay, HeLa-fR cells
Description: (§3) Caspase Activity: PCD was induced (as described above) 24 hours after plating 10,000 cells/well in white-walled 96 well tissue culture plates (BD Biosciences). After indicated treatment times, the Caspase 3/7-Glo Assay (Promega) was performed according to the manufacturer's protocol and bioluminescence measurements were obtained from and Infinite 200 plate reader (Tecan). All values were normalized to controls (i.e. pre-treatment values).

intracellular H2O2 [2] = experiment: Intracellular H2O2 by CM-H2DCFDA, HeLa-fR cells; conditions: STS-treated HeLa-fR cells
Description: Catalase and Allopurinol: HeLa-fR cells were plated at a density of 120,000 cells per well of a 12 well tissue culture plate (BD Biosciences). 24 hours later, the cells were incubated with 10 μM CM-H2DCFDA (Invitrogen) for 30 minutes at 37° C. Cells were then treated with PBS (pH 7.4), 50 U/mL catalase or 100 μM allopurinol for one hour. PBS (pH 7.4) or 10 μM STS was subsequently added to the cells, and all compounds remained on the cells for 24 hours. Intracellular H2O2 levels were determined by subjecting the cells to flow cytometry using a Guava EasyCyte (Guava Technologies). Analysis of flow cytometry data was accomplished using FlowJo software (Treestar).

HeLa-fR cells [3] = experiment: Western blot of fLuc and RLuc8 protein, HeLa-fR cells; conditions: STS-treated cells pretreated with the inhibitor/scavenger
Description: Following indicated culture conditions, HeLa-fR cells were washed 3 times with 1×PBS (pH7.4). Proteins were extracted using RIPA extraction buffer (50 mM Tris HCL, pH 7.4, 1% Triton X-100, 0.25% Na-deoxycholate, 150 mM NaCl, 1 mM EDTA and a Complete Mini Protease Inhibitor Cocktail Tablet (Roche)) at 4° C. for 30 minutes with constant agitation. Total protein concentrations were measured using a BCA assay (Pierce, Rockford, Ill., USA). […] Proteins separated by electrophoresis were transferred to nitrocellulose membranes in 1× Transfer Buffer (Bio-Rad) at 15V for 30 minutes. Membranes were blocked in Blocking Buffer for Fluorescent Western Blotting (Rockland Immunochemicals, Gilbertsville, Pa., USA) for 60 minutes. The membranes were incubated with anti-fLuc (Sigma), anti-rLuc (Millipore, Billerica, Mass.) or anti-β-actin (Abcam, Cambridge, Mass.) primary antibodies in blocking buffer overnight. […] The fluorescent signal from the membranes was imaged using the Odyssey Infrared Imaging System (Li-Cor Biosciences, Lincoln, Nebr., USA).

MCF7-fR cells [4] = experiment: RLuc8:fLuc ratio in MCF7-fR cells (Dual-Glo); conditions: MCF7-fR cells treated with the cell death inducer alone
Description: as §1, §2

MCF7-fR cells [5] = experiment: TUNEL assay for DNA fragmentation, MCF7-fR cells; conditions: increasing dosages of resveratrol, 24 hours
Description: DNA Fragmentation: PCD was induced (as described above) 24 hours after plating 300,000 cells/well in 6 well tissue culture plates (BD Biosciences). After indicated treatment times, TUNEL assays for DNA fragmentation were performed using the TUNEL/ApoBRDU assay kit (Invitrogen) according to the manufacturer's protocol. Percent DNA fragmentation was determined using flow cytometry on a Guava EasyCyte flow cytometer (Guava Technologies, Hayward, Calif.). Analysis of flow cytometry data was performed using FlowJo software (Treestar, Ashland, Oreg.).

caspase 3/7 = experiment: Caspase-Glo 3/7 assay, MCF7-fR cells
Description: as §3

intracellular H2O2 [6] = experiment: Intracellular H2O2 by CM-H2DCFDA, MCF7-fR cells; conditions: increasing dosages of resveratrol, 24 hours

SMILES: CC[C@@]1(O)C(=O)OCc2c1cc1n(c2=O)Cc2cc3ccccc3nc2-1 [camptothecin]
- RLuc8:fLuc bioluminescent ratio (HeLa-fR cells [1]): dose- and time-dependent increase
- caspase activity / caspase dependence of cell death (caspases 3 and 7): caspase-dependent

SMILES: CC(=O)Oc1ccccc1C(=O)O [aspirin, acetylsalicylic acid]
- RLuc8:fLuc ratio of STS-treated cells with inhibitor/scavenger (HeLa-fR cells [1]): significant reduction (p<0.01)
- RLuc8:fLuc ratio, increasing doses of inhibitor/scavenger (HeLa-fR cells [1]; pretreated 1 hour prior to 10 μM STS, 24 hr): reducing the Rluc8:fLuc ratio, in a dose-dependent manner
- intracellular H2O2 (CM-H2DCFDA fluorescence) with inhibitor/scavenger (intracellular H2O2 [2]): decrease in CM-H2DCFDA fluorescence
- fLuc protein level vs STS without inhibitor (HeLa-fR cells [3]): higher levels of fLuc protein

SMILES: CC(C)[C@H](NC(=O)OCc1ccccc1)C(=O)N[C@H](C=O)Cc1ccccc1 [Calpain Inhibitor III] (Cbz-Val-Phe-aldehyde)
- RLuc8:fLuc ratio, inhibitor on untreated (−STS) cells (HeLa-fR cells [1]; HeLa-fR, no STS): increase in the Rluc8:fLuc ratio
- RLuc8:fLuc ratio of STS-treated cells with inhibitor/scavenger (HeLa-fR cells [1]): none of these inhibitors significantly affected

SMILES: CC1(C)CC(O)CC(C)(C)N1[O] [TEMPOL]
- RLuc8:fLuc ratio of STS-treated cells with inhibitor/scavenger (HeLa-fR cells [1]): none of the superoxide scavengers significantly reduced

SMILES: CC(C)C[C@@H](C=O)NC(=O)[C@H](CC(C)C)NC(=O)[C@H](CC(C)C)NC(=O)OCc1ccccc1 [MG-132] (Cbz-Leu-Leu-Leu-aldehyde)
- RLuc8:fLuc ratio of STS-treated cells with inhibitor/scavenger (HeLa-fR cells [1]): increase in the RLuc8:fLuc ratio

SMILES: CC(=O)N[C@@H](CSC(=O)[C@]1([C@@H](O)C(C)C)NC(=O)[C@H](C)[C@@H]1O)C(=O)O [lactacystin]
- RLuc8:fLuc ratio of STS-treated cells with inhibitor/scavenger (HeLa-fR cells [1]): increase in the RLuc8:fLuc ratio

SMILES: O=S(=O)(O)c1cc(O)c(O)c(S(=O)(=O)O)c1 [Tiron]
- RLuc8:fLuc ratio of STS-treated cells with inhibitor/scavenger (HeLa-fR cells [1]): none of the superoxide scavengers significantly reduced

SMILES: Cl.N [ammonium chloride]
- RLuc8:fLuc ratio of STS-treated cells with inhibitor/scavenger (HeLa-fR cells [1]): none of these inhibitors significantly affected

SMILES: COc1cccc2c1C(=O)c1c(O)c3c(c(O)c1C2=O)C[C@@](O)(C(=O)CO)C[C@@H]3O[C@H]1C[C@H](N)[C@H](O)[C@H](C)O1 [doxorubicin, Doxorubicin]
- RLuc8:fLuc bioluminescent ratio (HeLa-fR cells [1]): dose- and time-dependent increase
- caspase activity / caspase dependence of cell death (caspases 3 and 7): caspase-dependent

SMILES: Oc1ccc(C=Cc2cc(O)cc(O)c2)cc1 [resveratrol]
- RLuc8:fLuc ratio (MCF7-fR cells [4]): increased
- DNA fragmentation levels (MCF7-fR cells [5]): increased
- caspase 3/7 activity / caspase dependence of cell death (caspase 3/7): remained inactive
- intracellular H2O2 (intracellular H2O2 [6]): increased
